For four compounds, IC50 and melting point results are on record in patent US20060063784A1, “Method of using substituted pyrazolo [1,5-a] pyrimidines” (priority 2004, published 2006).

Data set [1] relates to 80S14 (p21-deficient) cells. Nature of the data set: Cytotoxicity assay using isogenic cell lines: IC50 in 80S14 (p21-deficient) cells, SRB. Type of data set: cell-based, human. The note with it: Homo sapiens, 120 h; 80S14 (p21-deficient) cells, 5 days, SRB; class symbols; read-out: IC50 for 80S14. The procedure, abridged: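 IC50 is the concentration halving proliferation relative to untreated controls, read from SRB absorbance (560 nm) after TCA fixation. Test agent dilutions (5 pM–50 μM or 170 pg/ml–10 μg/ml) were left on p21-deficient 80S14 cells (12,000/well, pre-incubated overnight) for 5 days at 37 °C.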

Data set [2] relates to LoVo Colon cell line. Nature of the data set: Cytotoxicity assay using LoVo colon cell line, SRB. Format: cell-based. Particulars: Homo sapiens, 96 h; Cellular activity in LoVo cell; 4 days incubation, SRB; read-out: Inhibition of LoVo. The essentials: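 Growth inhibition read by sulforhodamine B after 4-day compound exposure at 37 °C. Colon LoVo cells plated at 4000 per well in RPMI/10% FBS a day earlier; doses ranged 5 pM-20 μM or 170 pg/ml-10 μg/ml. IC50 is the concentration halving proliferation versus untreated wells.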

In turn, `O=C(Nc1cccc(-c2ccnc3c(C(=O)c4cccs4)cnn23)c1)OCCCN1CCS(=O)(=O)CC1` [Example 420, 3-(1,1-Dioxidothiomorpholin-4-yl)propyl 3-[3-(thien-2-ylcarbonyl)pyrazolo[1,5-a]pyrimidin-7-yl]phenylcarbamate] returned a melting point of 148 to 159 °C. The IC50 in data set [1] is below 1 µM. Further, the IC50 in data set [2] is 0.1 to 1 µM.

As to `CC(C)CC(=O)Nc1cccc(-c2ccnc3c(-c4cccc(N)c4)cnn23)c1` [Example 464, N-{3-[3-(3-Aminophenyl)pyrazolo[1,5-a]pyrimidin-7-yl]phenyl}-3-methylbutanamide], the melting point fell in the range of 173 to 175 °C. Besides, in data set [1], the IC50 fell in the range of 10 to 50 µM. For the same compound, in data set [2], the IC50 lay within 1 to 20 µM.

For `O=C(c1cccs1)c1cnn2c(-c3cccc(-c4cc[nH]n4)c3)ccnc12` [Example 514, {7-[3-(1H-Pyrazol-3-yl)phenyl]pyrazolo[1,5-a]pyrimidin-3-yl}(thien-2-yl)methanone], the melting point stood at 129 °C. The IC50 in data set [1] was below 1 µM. Also, the IC50 in data set [2] lay within 0.1 to 1 µM.

With `O=C(c1cccs1)c1cnn2c(-c3cccc(-c4ccn(CCN5CCCCC5)n4)c3)ccnc12` [Example 519, (7-{3-[1-(2-piperidin-1-ylethyl)-1H-pyrazol-3-yl]phenyl}pyrazolo[1,5-a]pyrimidin-3-yl)(thien-2-yl)methanone], the melting point stood at 62 °C. The IC50 in data set [1] lay within 1 to 10 µM. In data set [2], the IC50 lay in the range of 0.1 to 1 µM.
